Several values for one entry are separate records, joined by “and”; a condition that tells them apart may be missing. Equal entries are not always repeated.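 Results reflect a 48-hour exposure of cells in 96-well plates to compound at five concentrations. GI50 marks 50% less growth. TGI: total growth inhibition.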
Each compound was assayed on MDA-MB-468 breast (assay: NCI anticancer screen, dose series, 48 h).

What does the source list for `Cc1ccc(/C=C2\CCOC2=O)cc1`?
GI50: > 100000 nM; TGI: > 100000 nM

With `CCOc1ccc2c(c1)/C(=C\C=C\C1CC(C)C3CC(OCC)CCC3N1CC)CC(C)N2CC` (configuration not stated) as the compound, how does the GI50 read?
Its GI50 is 280 nM.

And the TGI?
Its TGI is 1110 nM.

`Cn1c(=O)c(F)c(Nc2ccc(I)cc2F)c2c(=O)n(C[C@@H](O)CO)cnc21` was tested. Which GI50 did it give?
Its GI50 is 1800 nM and 590 nM.

What about the TGI of the same compound?
Its TGI is 8660 nM and > 2090 nM.

For `CCCCCCCCSC1=CC(=O)C(OC)=C(OC)C1=O`, which GI50 is on record?
Its GI50 is 1430 nM.

And the TGI?
The TGI was 2970 nM.

Which GI50 does the source give for `COc1cccc2c1C(=O)c1c(O)c3c(c(O)c1C2=O)C[C@@](O)(C(C)=O)C[C@@H]3OC1CC(N)C(O)C(C)O1` (some centres not stated) here?
The GI50 was 62.3 nM.

And the TGI?
The TGI was 313 nM.

Which results are given for `CN1CCC(n2cc(Nc3ncc4c(=O)n(-c5c(Cl)cccc5Cl)cc(Br)c4n3)cn2)CC1`?
GI50: 937 nM; TGI: 7270 nM

With `Cn1c(=O)c(Cc2ccc(F)cc2F)cc2cnc(NC3CCOCC3)nc21` as the compound, how does the GI50 read?
Its GI50 is 19600 nM.

What about the TGI of the same compound?
The TGI was greater than 25000 nM.

Which results are given for `COc1ccc(C2CC(c3cc(OC)c(OC)c(OC)c3)=NN2)cc1` (configuration not stated)?
GI50: 4350 nM; TGI: 64500 nM

What does the source list for `Oc1ccc2ccccc2c1/C=N\Nc1ccccn1`?
GI50: 1590 nM; TGI: 4870 nM

What does the source list for `CC(C)(C)CC(C)(C)Cc1ccc(OCCOCC[N+](C)(C)Cc2ccccc2)cc1`?
GI50: 235 nM; TGI: 1200 nM

Which GI50 does the source give for `COC(=O)c1c(-c2ccccc2)csc1NC(=O)c1c(-c2ccccc2)noc1C` here?
Its GI50 is 3200 nM.

What about the TGI of the same compound?
The TGI was greater than 100000 nM.

Which results are given for `Fc1ccc(Nc2nc(Nc3ccc(-c4nc5ccccc5[nH]4)cc3)nc(N3CCCC3)n2)cc1`?
GI50: 2750 nM; TGI: 6740 nM

What does the source list for `COc1cc(-c2ccc(-c3ccc(C(=N)N)s3)s2)cc(OC)c1OC`?
GI50: 1820 nM; TGI: 3700 nM

`O=C1NC(=NCCc2ccccc2Cl)S/C1=C\c1ccc2ncccc2c1` was tested. Which GI50 did it give?
Its GI50 is 2170 nM.

What about the TGI of the same compound?
Its TGI is greater than 18300 nM.

For `CSC(=S)N/N=C(\C)c1ccccn1`, which GI50 is on record?
The GI50 was 68.5 nM.

What about the TGI of the same compound?
Its TGI is 1210 nM.

Which results are given for `O=C(CCN1CCCC1)Nc1ccc2c(NCCCCc3ccccc3)c3ccccc3nc2c1`?
GI50: 811 nM; TGI: 2120 nM

Which GI50 does the source give for `O=[N+]([O-])c1ccc2[nH]cc(-c3c4ccccc4cc4[nH]c5ccc([N+](=O)[O-])cc5c34)c2c1` here?
Its GI50 is 2500 nM.

What about the TGI of the same compound?
Its TGI is 7710 nM.

Which results are given for `CCN1C(=O)N(c2c(F)c(OC)cc(OC)c2F)Cc2cnc3[nH]c(CN4CCOCC4)cc3c21`?
GI50: 2290 nM; TGI: 55900 nM

Which GI50 does the source give for `Cc1nc2cc(O)c(O)cc2cc1Oc1ccc(NC(=O)Nc2ccc(Cl)c(Cl)c2)cc1` here?
The GI50 was 6990 nM.

And the TGI?
Its TGI is 17400 nM.

`CS(=O)(=O)c1nccc(-c2c(-c3cccc(OCc4ccc(Cl)c(C(F)(F)F)c4)c3)nc3sccn23)n1` was tested. Which GI50 did it give?
The GI50 was 859 nM.

What about the TGI of the same compound?
The TGI was 1660 nM.

For `C=C1C(=O)O[C@H]2[C@H]1CC/C(COC(=O)CCC(=O)OC/C1=C/CC[C@@]3(C)O[C@H]3[C@H]3OC(=O)C(=C)[C@@H]3CC1)=C\CC[C@@]1(C)O[C@@H]21`, which GI50 is on record?
The GI50 was 1560 nM.

And the TGI?
Its TGI is 4830 nM.

Which results are given for `COc1ccccc1Nc1nc(-c2cc3cccc(C(F)(F)F)c3oc2=O)cs1`?
GI50: 97 nM; TGI: 710 nM

`Nc1nc(Cl)nc2c1ncn2C1O[C@H](CO)[C@@H](O)[C@@H]1F` (some centres not stated) was tested. Which GI50 did it give?
Its GI50 is 387 nM.

What about the TGI of the same compound?
The TGI was 21800 nM.

`COc1ccc(/C=N/NC2=NC3C(S2)N(C)C(=O)N3C)cc1` (configuration not stated) was tested. Which GI50 did it give?
Its GI50 is 1950 nM.

And the TGI?
Its TGI is 5350 nM.

With `NC(=O)NC(=O)CI` as the compound, how does the GI50 read?
Its GI50 is 2480 nM.

What about the TGI of the same compound?
Its TGI is 7730 nM.

For `Cc1ccc(/C=C(\C#N)n2nnc3cc(F)c(F)cc32)cc1`, which GI50 is on record?
Its GI50 is 10300 nM.

What about the TGI of the same compound?
The TGI was 44400 nM.

`COC(=O)c1ccc2c(c1)nc(-c1ccc(Cl)cc1)n2-c1cc(C(C)(C)C)[nH]n1` was tested. Which GI50 did it give?
The GI50 was 2400 nM.

What about the TGI of the same compound?
Its TGI is 7980 nM.

How did the GI50 turn out when `C=C1C(=O)O[C@H]2[C@H]1CC/C(Cn1cc(CCC)nn1)=C\CC[C@@]1(C)O[C@@H]21` was run?
Its GI50 is 3650 nM.

And the TGI?
The TGI was 14900 nM.

Which results are given for `C[n+]1c2ccccc2c(NC2CCNCC2)c2[nH]c3ccccc3c21`?
GI50: 200 nM; TGI: 1260 nM

How did the GI50 turn out when `CNCCNc1nc2ccccc2c2c(=O)c3cccc(OC)c3sc12` was run?
The GI50 was 1450 nM.

And the TGI?
The TGI was 3060 nM.

With `COc1ccc(-n2c(N)c(C(=O)NCCN3CCOCC3)c3nc4ccccc4nc32)cc1OC` as the compound, how does the GI50 read?
The GI50 was 17900 nM.

And the TGI?
The TGI was greater than 100000 nM.

`Cn1c2ccccc2c2c3c(c4c5ccccc5n(CCCCCC#N)c4c21)C(=O)N(O)C3=O` was tested. Which GI50 did it give?
Its GI50 is 683 nM.

And the TGI?
The TGI was 6120 nM.

How did the GI50 turn out when `O=C1NC(=NCc2ccccn2)S/C1=C\c1ccc2ncccc2c1` was run?
The GI50 was 5970 nM.

What about the TGI of the same compound?
The TGI was greater than 25000 nM.

What does the source list for `COc1ccc(C(=O)Nc2cccc(C3CC(=O)c4c(cc(OC)c(OC)c4OC)O3)c2)cc1` (configuration not stated)?
GI50: 940 nM; TGI: > 100000 nM

Which results are given for `C=C1C(=O)O[C@@H]2/C=C(/C)C3=CC(=O)[C@@](C)(C[C@H](OC(=O)/C(C)=C\C)[C@@H]12)O3`?
GI50: 1140 nM; TGI: 5030 nM

For `Nc1nc(N)c2c(n1)NC(c1ccccc1)CC(c1ccc(Nc3nc(NCCO)nc(Nc4ccc(Cl)cc4)n3)cc1)=N2` (configuration not stated), which GI50 is on record?
Its GI50 is 1510 nM.

What about the TGI of the same compound?
The TGI was 2990 nM.

Which GI50 does the source give for `Cc1ccccc1NC(=O)NC(CC(N)=O)c1ccc2c(c1)nc(-c1cccc(Oc3ccc(C(C)(C)C)cc3)c1)n2CCCN1CCCCC1C` (configuration not stated) here?
Its GI50 is 1780 nM.

And the TGI?
The TGI was 3280 nM.

What does the source list for `CCCCOC(=O)N[C@H]1CCc2cc(OC)c(OC)c(OC)c2-c2ccc(SC)c(=O)cc21`?
GI50: < 10 nM; TGI: 19400 nM

Which GI50 does the source give for `Cc1ccc2c(n1)C(=O)C(Cl)=C(Nc1ccc(C(C)C)cc1)C2=O` here?
Its GI50 is 512 nM.

What about the TGI of the same compound?
Its TGI is 1850 nM.

For `COc1ccc(/C=C(/C(=O)N2CCNCC2)c2cc(OC)c(OC)c(OC)c2)cc1O`, which GI50 is on record?
Its GI50 is 2270 nM.

What about the TGI of the same compound?
Its TGI is 9710 nM.

For `CN(C)CCn1cc(-c2ccc3c(Nc4ccc(CC(=O)Nc5cccc(F)c5)cc4)ncnc3c2)cn1`, which GI50 is on record?
The GI50 was 1260 nM.

What about the TGI of the same compound?
The TGI was 2850 nM.
